The test deals with T1, 1-deoxy-D-xylulose 5-phosphate synthase (DXPS) (Escherichia coli, UniProt P77488).
T1 sequence (P77488 2-620): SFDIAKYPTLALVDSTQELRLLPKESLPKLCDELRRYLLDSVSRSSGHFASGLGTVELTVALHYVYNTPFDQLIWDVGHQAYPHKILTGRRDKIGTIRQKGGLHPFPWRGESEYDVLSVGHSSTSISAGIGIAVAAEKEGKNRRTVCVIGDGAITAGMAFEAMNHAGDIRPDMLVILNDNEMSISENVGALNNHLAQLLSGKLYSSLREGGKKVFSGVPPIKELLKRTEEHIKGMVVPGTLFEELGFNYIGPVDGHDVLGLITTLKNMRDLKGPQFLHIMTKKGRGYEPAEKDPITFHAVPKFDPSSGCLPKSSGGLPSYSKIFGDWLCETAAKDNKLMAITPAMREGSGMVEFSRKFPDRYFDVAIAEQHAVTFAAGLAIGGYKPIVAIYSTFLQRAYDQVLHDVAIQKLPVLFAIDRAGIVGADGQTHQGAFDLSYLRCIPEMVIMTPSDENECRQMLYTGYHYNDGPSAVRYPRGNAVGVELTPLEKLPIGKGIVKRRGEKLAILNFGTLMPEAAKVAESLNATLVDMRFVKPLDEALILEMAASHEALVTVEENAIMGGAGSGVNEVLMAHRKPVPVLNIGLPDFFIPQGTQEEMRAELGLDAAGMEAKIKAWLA
The test can be described thus: CD titration of the ThDP-bound pre-decarboxylation intermediate, anaerobic. The test is classed as binding.

`CCC(=O)C(=O)O` [compound 2, ketobutyrate] yielded a Kd of 16 ± 9 µM.
